Results on 1 molecule are retold here after patent US20150352114A1, “MITOTIC KINESIN Eg5 INHIBITING ANTICANCER AGENTS” (THE CLEVELAND CLINIC FOUNDATION, priority 2014, published 2015).

One assay deals with GSCs from xenograft 3691. The assay is described as follows: Intracranial implantation of pre-exposed GSCs (tumor initiation). Format: in vivo, mice. The protocol: All animal studies described were approved by the Cleveland Clinic Foundation Institutional Animal Care and Use Committee and conducted in accordance with the NIH Guide for the Care and Use of Laboratory Animals. For subcutaneous tumor studies, 1×10^5 freshly dissociated GBM cells from a xenograft originally derived from a primary GBM patient specimen (3691) were injected into the flanks of 10 six week old female athymic nu/nu mice. Tumors were allowed to reach approximately 0.12 cm^3, at which point animals were randomized into either vehicle control (DMSO) group or ispinesib (10 mg/kg given daily for 7 consecutive days by intraperitoneal injection) (Selleck Chemicals, Houston, Tex.). Tumors were monitored and measured daily using perpendicular diameter measurements for 7 days. Tumor volume was calculated using the ellipsoid formula π/6×larger diameter×(smaller diameter)^2. After the last treatment on Day 7, tumors were removed and weighed then processed for immunofluorescence (as described below). For intracranial implantation studies to evaluate tumor initiation by GSCs, the cells were isolated as described below and pre-exposed to drug or vehicle either in vitro or in vivo. […] Mice were monitored daily for neurological impairment at which time they were sacrificed and brains removed to evaluate for tumor development.

For a further assay, the system named is 3691 GBM cells. The assay is described as follows: Subcutaneous flank tumor study, 3691 GBM xenograft. Format: in vivo, mice. The protocol: All animal studies described were approved by the Cleveland Clinic Foundation Institutional Animal Care and Use Committee and conducted in accordance with the NIH Guide for the Care and Use of Laboratory Animals. For subcutaneous tumor studies, 1×10^5 freshly dissociated GBM cells from a xenograft originally derived from a primary GBM patient specimen (3691) were injected into the flanks of 10 six week old female athymic nu/nu mice. Tumors were allowed to reach approximately 0.12 cm^3, at which point animals were randomized into either vehicle control (DMSO) group or ispinesib (10 mg/kg given daily for 7 consecutive days by intraperitoneal injection) (Selleck Chemicals, Houston, Tex.). Tumors were monitored and measured daily using perpendicular diameter measurements for 7 days. Tumor volume was calculated using the ellipsoid formula π/6×larger diameter×(smaller diameter)^2. After the last treatment on Day 7, tumors were removed and weighed then processed for immunofluorescence (as described below). For intracranial implantation studies to evaluate tumor initiation by GSCs, the cells were isolated as described below and pre-exposed to drug or vehicle either in vitro or in vivo. For in vitro pre-exposure studies, GSCs from xenograft 3691 were seeded at single cell density and treated with vehicle or ispinesib (3 nM) for 18 hours (300,000 cells per condition). Drug was then washed off and 2,500 or 25,000 viable GSCs were implanted into the right frontal lobes of male NSG mice (n=10 for vehicle, n=7 for ispinesib). For in vivo pre-exposure studies, subcutaneous tumors were established as described above. When tumors reached ˜0.5 cm^3, mice were randomized into a vehicle (DMSO) or ispinesib (10 mg/kg given daily for 3 consecutive days) group. 4 hours after the final treatment, GSCs were isolated as described below and 1,000 or 10,000 viable GSCs were then intracranially implanted into NSG mice (10 mice per group). Mice were monitored daily for neurological impairment at which time they were sacrificed and brains removed to evaluate for tumor development. […]

The subject of a further assay is matched GSCs and NSTCs. The assay is described as follows: SubG1 (apoptotic) population by flow cytometry for propidium iodide. Format: cell-based, human. Particulars: 3 nM; four days; three xenograft patient specimens. The protocol:
The half maximal effective concentration of ispinesib for acutely dissociated and MACS sorted matched GSCs and NSTCs was determined by plating, in triplicate, 1,000 cells per well of a 96 well plate pre-coated with GelTrex in growth-factor free Neuralbasal media. The next day, cells were exposed to 2-fold increasing concentrations of ispinesib spanning from 0 to 32 nM. Viability was measured at 72 hours using CellTiter-Glo ATP-based assay (Promega, Madison, Wis.) read on a luminometer (Perkin-Elmer, Waltham, Mass.). For long-term viability assays, 500 cells per well were plated in triplicate into 96-well plates as above. The next day, cells were exposed to 3 nM ispinesib or vehicle (DMSO) and viability was measured daily for 5 days using CellTiter-Glo. Day 0 reading were taken immediately after addition of drug or vehicle. SubG1 for GSCs and NSTCs was determined by flow cytometry for propidium iodide and gated as the events below the 2N G1 peak of the resulting histogram. Analysis was done following treatment of 100,000 cells with vehicle or 3 nM ispinesib. Cells were fixed at Day 0 through Day 4 in 100% cold ethanol and simultaneously processed for flow analysis with 20,000 events analyzed per condition.
Background: A flow cytometer gives signals particle by particle.

Another assay concerns 08-387 GSCs. The assay is described as follows: Cytoskeleton Phospho Antibody Array. To be noted: 200 nM; 7 hours. Format: cell-based, human. As to the method:
08-387 GSCs were enriched in G1 as described. Cells were then exposed to vehicle or ispinesib (200 nM) for 7 hours. Following treatment, cells were pelleted and snap frozen in liquid nitrogen before shipping to Full Moon Biosystems for processing to probe a Cytoskeleton Phospho Antibody Array containing 141 highly specific cytoskeleton related antibodies (Sunnyvale, Calif.).

Consider `Cc1ccc(C(=O)N(CCCN)[C@@H](c2nc3cc(Cl)ccc3c(=O)n2Cc2ccccc2)C(C)C)cc1` [ispinesib, N-(3-amino-propyl)-n-[R-1-(3-benzyl-7-choloro-4-oxo-3,4-dihydroquinazolin-2-yl)-2-methyl-propyl]-4-methyl-benzamide methanesulfonate], for which the tumor initiation result in the assay on GSCs from xenograft 3691 (GSCs from subcutaneous tumors treated in vivo 3 days with 10 mg/kg, 1,000 or 10,000 cells per mouse) is reported as “reduced their tumor initiation phenotype”. The secondary tumor initiation entry with GSCs from xenograft 3691 (GSCs pretreated in vitro 18 hours with 3 nM, 2,500 or 25,000 cells per mouse) was “significant impairment of secondary tumor initiation”. For the same molecule, the tumor volume entry in the assay with 3691 GBM cells (10 mg/kg daily intraperitoneal, 7 consecutive days) is given as “significantly reduced”. The tumor weight result in the assay on 3691 GBM cells (10 mg/kg daily intraperitoneal, 7 consecutive days, day 7) is reported as “significantly reduced”. For the same molecule, the “Sox2 positive cells in end stage tumors” value in the assay on 3691 GBM cells (10 mg/kg daily, 7 days) is reported as “no Sox2 positive cells”. For the same molecule, the “subG1 population (surrogate marker for apoptosis)” value in the assay on matched GSCs and NSTCs is recorded as “higher subG1 fraction over NSTCs”. The “phosphorylation of 141 cytoskeleton proteins” value in the assay on 08-387 GSCs was “no significant changes in phosphorylation”.
